{
  "source": "patent US6693216B2",
  "about": "“Calcium double salts” (Nutrinova Nutrition Specialties & Food Ingredients GmbH, priority 2000, dated 2004)",
  "key": {"[1]": {"conditions": "sealed", "excerpt": "Salts prepared as in example 1 were dried, stored under the specified conditions without the addition of other substances and checked at regular intervals visually for discoloration: […]"}, "[2]": {"tested_on": "Lactic acid bacteria", "conditions": "Part I, 1 g/l in apple juice pH 4.5, 25° C."}, "[3]": {"tested_on": "Clostridia", "conditions": "Part I, 1 g/l in apple juice pH 4.5, 25° C."}, "[4]": {"tested_on": "Bacilli", "conditions": "Part I, 1 g/l in apple juice pH 4.5, 25° C."}, "[5]": {"tested_on": "Thermophilic bacilli", "conditions": "Part I, 1 g/l in apple juice pH 4.5, 25° C."}, "[6]": {"tested_on": "Acetic acid bacteria", "conditions": "Part I, 1 g/l in apple juice pH 4.5, 25° C."}, "[7]": {"tested_on": "Yeasts", "conditions": "Part I, 1 g/l in apple juice pH 4.5, 25° C."}, "[8]": {"tested_on": "Molds I", "conditions": "Part I, 1 g/l in apple juice pH 4.5, 25° C."}, "[9]": {"tested_on": "Molds II", "conditions": "Part I, 1 g/l in apple juice pH 4.5, 25° C."}, "[10]": {"tested_on": "Gram-negative bacteria", "conditions": "Part I, 1 g/l in apple juice pH 4.5, 25° C."}, "[11]": {"tested_on": "Gram-positive bacteria", "conditions": "Part I, 1 g/l in apple juice pH 4.5, 25° C."}, "[12]": {"tested_on": "all microorganisms used"}, "[13]": {"conditions": "1 day after inoculation (1.5 × 10^4)"}, "[14]": {"conditions": "3 days after inoculation (1.5 × 10^4)"}, "[15]": {"conditions": "7 days after inoculation (1.5 × 10^4)"}, "[16]": {"conditions": "14 days after inoculation (1.5 × 10^4)"}},
  "note": "Where two headings read alike, the source gives them in different places.",
  "data": [
    {"smiles": "C/C=C/C=C/C(=O)[O-].CCC(=O)[O-].[Ca+2]", "note": "[calcium propionate sorbate]", "values": [
      {"measurement": "Time after yellow-brown discoloration of a 1% strength aqueous solution", "setting": "[1]; dark at 7° C.", "result": ">12", "unit": "months/>12 months"},
      {"measurement": "Time after yellow-brown discoloration of the powder", "setting": "[1]; dark at 7° C.", "result": 12, "unit": "months/>12 months"},
      {"measurement": "Time after yellow-brown discoloration of a 1% strength aqueous solution", "setting": "[1]; dark at 25° C.", "result": ">12", "unit": "months/>12 months"},
      {"measurement": "Time after yellow-brown discoloration of the powder", "setting": "[1]; dark at 25° C.", "result": 12, "unit": "months/>12 months"},
      {"measurement": "Time after yellow-brown discoloration of a 1% strength aqueous solution", "setting": "[1]; under sunlight at 7° C.", "result": 12, "unit": "months/12 months"},
      {"measurement": "Time after yellow-brown discoloration of the powder", "setting": "[1]; under sunlight at 7° C.", "result": 12, "unit": "months/12 months"},
      {"measurement": "Time after yellow-brown discoloration of a 1% strength aqueous solution", "setting": "[1]; under sunlight at 25° C.", "result": 12, "unit": "months/12 months"},
      {"measurement": "Time after yellow-brown discoloration of the powder", "setting": "[1]; under sunlight at 25° C.", "result": 12, "unit": "months/12 months"},
      {"measurement": "Number of surviving microorganisms per g of contaminated sample, Lactic acid bacteria", "setting": "[2]; 1 day after inoculation (1.9 × 10^4)", "result": "4.0 × 10^4 CFU/g"},
      {"measurement": "Number of surviving microorganisms per g of contaminated sample, Lactic acid bacteria", "setting": "[2]; 3 days after inoculation (1.9 × 10^4)", "result": "3.2 × 10^5 CFU/g"},
      {"measurement": "Number of surviving microorganisms per g of contaminated sample, Lactic acid bacteria", "setting": "[2]; 7 days after inoculation (1.9 × 10^4)", "result": "2.4 × 10^3 CFU/g"},
      {"measurement": "Number of surviving microorganisms per g of contaminated sample, Lactic acid bacteria", "setting": "[2]; 14 days after inoculation (1.9 × 10^4)", "result": 130, "unit": "CFU/g"},
      {"measurement": "Number of surviving microorganisms per g of contaminated sample, Clostridia", "setting": "[3]; 1 day after inoculation (1.4 × 10^4)", "result": "1.3 × 10^3 CFU/g"},
      {"measurement": "Number of surviving microorganisms per g of contaminated sample, Clostridia", "setting": "[3]; 3 days after inoculation (1.4 × 10^4)", "result": 800, "unit": "CFU/g"},
      {"measurement": "Number of surviving microorganisms per g of contaminated sample, Clostridia", "setting": "[3]; 7 days after inoculation (1.4 × 10^4)", "result": 310, "unit": "CFU/g"},
      {"measurement": "Number of surviving microorganisms per g of contaminated sample, Clostridia", "setting": "[3]; 14 days after inoculation (1.4 × 10^4)", "result": 55, "unit": "CFU/g"},
      {"measurement": "Number of surviving microorganisms per g of contaminated sample, Bacilli", "setting": "[4]; [13]", "result": "2.3 × 10^4 CFU/g"},
      {"measurement": "Number of surviving microorganisms per g of contaminated sample, Bacilli", "setting": "[4]; [14]", "result": "1.4 × 10^3 CFU/g"},
      {"measurement": "Number of surviving microorganisms per g of contaminated sample, Bacilli", "setting": "[4]; [15]", "result": "1.3 × 10^3 CFU/g"},
      {"measurement": "Number of surviving microorganisms per g of contaminated sample, Bacilli", "setting": "[4]; [16]", "result": 50, "unit": "CFU/g"},
      {"measurement": "Number of surviving microorganisms per g of contaminated sample, Thermophilic bacilli", "setting": "[5]; 1 day after inoculation (1.3 × 10^4)", "result": "1.1 × 10^3 CFU/g"},
      {"measurement": "Number of surviving microorganisms per g of contaminated sample, Thermophilic bacilli", "setting": "[5]; 3 days after inoculation (1.3 × 10^4)", "result": "<100", "unit": "CFU/g"},
      {"measurement": "Number of surviving microorganisms per g of contaminated sample, Thermophilic bacilli", "setting": "[5]; 7 days after inoculation (1.3 × 10^4)", "result": 10, "unit": "CFU/g"},
      {"measurement": "Number of surviving microorganisms per g of contaminated sample, Thermophilic bacilli", "setting": "[5]; 14 days after inoculation (1.3 × 10^4)", "result": 5, "unit": "CFU/g"},
      {"measurement": "Number of surviving microorganisms per g of contaminated sample, Acetic acid bacteria", "setting": "[6]; 1 day after inoculation (2.3 × 10^4)", "result": "7.5 × 10^4 CFU/g"},
      {"measurement": "Number of surviving microorganisms per g of contaminated sample, Acetic acid bacteria", "setting": "[6]; 3 days after inoculation (2.3 × 10^4)", "result": "2.1 × 10^6 CFU/g"},
      {"measurement": "Number of surviving microorganisms per g of contaminated sample, Acetic acid bacteria", "setting": "[6]; 7 days after inoculation (2.3 × 10^4)", "result": "2.9 × 10^6 CFU/g"},
      {"measurement": "Number of surviving microorganisms per g of contaminated sample, Acetic acid bacteria", "setting": "[6]; 14 days after inoculation (2.3 × 10^4)", "result": "1.1 × 10^6 CFU/g"},
      {"measurement": "Number of surviving microorganisms per g of contaminated sample, Yeasts", "setting": "[7]; 1 day after inoculation (2.5 × 10^4)", "result": "8.5 × 10^4 CFU/g"},
      {"measurement": "Number of surviving microorganisms per g of contaminated sample, Yeasts", "setting": "[7]; 3 days after inoculation (2.5 × 10^4)", "result": "5.0 × 10^4 CFU/g"},
      {"measurement": "Number of surviving microorganisms per g of contaminated sample, Yeasts", "setting": "[7]; 7 days after inoculation (2.5 × 10^4)", "result": "1.2 × 10^3 CFU/g"},
      {"measurement": "Number of surviving microorganisms per g of contaminated sample, Yeasts", "setting": "[7]; 14 days after inoculation (2.5 × 10^4)", "result": 10, "unit": "CFU/g"},
      {"measurement": "Number of surviving microorganisms per g of contaminated sample, Molds I", "setting": "[8]; 1 day after inoculation (1.7 × 10^4)", "result": "4.0 × 10^3 CFU/g"},
      {"measurement": "Number of surviving microorganisms per g of contaminated sample, Molds I", "setting": "[8]; 3 days after inoculation (1.7 × 10^4)", "result": 700, "unit": "CFU/g"},
      {"measurement": "Number of surviving microorganisms per g of contaminated sample, Molds I", "setting": "[8]; 7 days after inoculation (1.7 × 10^4)", "result": "<100", "unit": "CFU/g"},
      {"measurement": "Number of surviving microorganisms per g of contaminated sample, Molds I", "setting": "[8]; 14 days after inoculation (1.7 × 10^4)", "result": "<10", "unit": "CFU/g"},
      {"measurement": "Number of surviving microorganisms per g of contaminated sample, Molds II", "setting": "[9]; [13]", "result": "1.1 × 10^3 CFU/g"},
      {"measurement": "Number of surviving microorganisms per g of contaminated sample, Molds II", "setting": "[9]; [14]", "result": 80, "unit": "CFU/g"},
      {"measurement": "Number of surviving microorganisms per g of contaminated sample, Molds II", "setting": "[9]; [15]", "result": 50, "unit": "CFU/g"},
      {"measurement": "Number of surviving microorganisms per g of contaminated sample, Molds II", "setting": "[9]; [16]", "result": "<10", "unit": "CFU/g"},
      {"measurement": "Number of surviving microorganisms per g of contaminated sample, Gram-negative bacteria", "setting": "[10]; 1 day after inoculation (2.4 × 10^4)", "result": "3.5 × 10^4 CFU/g"},
      {"measurement": "Number of surviving microorganisms per g of contaminated sample, Gram-negative bacteria", "setting": "[10]; 3 days after inoculation (2.4 × 10^4)", "result": "1.7 × 10^3 CFU/g"},
      {"measurement": "Number of surviving microorganisms per g of contaminated sample, Gram-negative bacteria", "setting": "[10]; 7 days after inoculation (2.4 × 10^4)", "result": 900, "unit": "CFU/g"},
      {"measurement": "Number of surviving microorganisms per g of contaminated sample, Gram-negative bacteria", "setting": "[10]; 14 days after inoculation (2.4 × 10^4)", "result": "<10", "unit": "CFU/g"},
      {"measurement": "Number of surviving microorganisms per g of contaminated sample, Gram-positive bacteria", "setting": "[11]; 1 day after inoculation (2.6 × 10^4)", "result": "7.0 × 10^4 CFU/g"},
      {"measurement": "Number of surviving microorganisms per g of contaminated sample, Gram-positive bacteria", "setting": "[11]; 3 days after inoculation (2.6 × 10^4)", "result": "7.0 × 10^3 CFU/g"},
      {"measurement": "Number of surviving microorganisms per g of contaminated sample, Gram-positive bacteria", "setting": "[11]; 7 days after inoculation (2.6 × 10^4)", "result": 400, "unit": "CFU/g"},
      {"measurement": "Number of surviving microorganisms per g of contaminated sample, Gram-positive bacteria", "setting": "[11]; 14 days after inoculation (2.6 × 10^4)", "result": "<10", "unit": "CFU/g"},
      {"measurement": "Antimicrobial activity (words, general statement)", "setting": "[12]", "result": "inhibited particularly well"},
      {"measurement": "Preservative action against the microorganisms used", "setting": "[12]; 1 g/l in apple juice pH 4.5, up to 14 days", "result": "acts well and persistently against all microorganisms used, except for bacilli"},
      {"measurement": "Preservative action compared with the single salts", "setting": "[12]; same concentration, 1 g/l in apple juice pH 4.5", "result": "acts surprisingly better than potassium sorbate (used at the same concentration), in particular against lactic acid bacteria, thermophilic bacilli, yeasts and some molds (molds group II)"}
    ]}
  ]
}
